pIC50: −log10 of the molar value. Like-named read-outs stand apart in the source and are kept apart here.
Legend:
[1] = biological target: cytidine deaminase: CDA (1-146aa), Human, His-tagged, Recombinant (Homo sapiens, UniProt P32320); experiment: Stability against cytidine deaminase (HPLC)
Description: Stability of Silyl Etherified Derivatives of 5-azacytidines in Carbohydrate Moiety Against Cytidine Deaminase
About 1 mg each of the silyl etherified derivatives of 5-azacytidines in carbohydrate moiety (referring to formula (1a)) was dissolved in 1 mL of acetonitrile. 10 μL of the solution was diluted with 1 mL of PBS. 10 μL of PBS solution of cytidine deaminase was added to the solution and stirred at 37° C. for about 1 hour. 1 mL of acetonitrile was added to the reaction solution and separated by centrifugation. The supernatant was analyzed with HPLC.
Cytidine deaminase: CDA (1-146aa), Human, His-tagged, Recombinant cytidine deaminase (ATGen)
Column: CAPCELL PAK ADME (4.6 mm×150 mm, particle size: 3 μm)
Elution: eluate A=Purified water containing 10 mM ammonium formate • eluate B=Acetonitrile • Gradient mode: A:B=99:1→5:95/30 minutes

RPMI-8226 myeloma cells = experiment: Anti-myeloma activity, inhibition of cell proliferation; type: cell-based; details: Homo sapiens, 72 hours incubation, cell count
Description: After incubation in RPMI-1640 (containing 10% FBS and 1% Penn-strep) for 72 hours, cell count was determined and IC50 values were calculated as inhibitory effect against cell proliferation (referring to Journal of Clinical Pathology, 2006, 59, 947-951.).

[2] = Non-enzymatic hydrolysis in PBS solution at 37° C. (HPLC); type: physicochemical; details: 10 mM PBS; for 5-Azacytidine or 2′-deoxy-5-azacytidine (%) After 4 hours / 5-Azacytidine or 2′-deoxy-5-azacytidine (%) After 8 hours / 5-Azacytidine or 2′-deoxy-5-azacytidine (%) After 24 hours: released parent by HPLC; for production of the desilylated parent (5-azacytidine or 2′-deoxy-5-azacytidine): traced by HPLC
Description: Non-Enzymatic Hydrolysis of Silyl Etherified Derivatives of 5-Azacytidines in Carbohydrate Moiety
5 μL of the solution was added to 100 μL of 10 mM PBS solution and stirred at 37° C. The reactions were traced by HPLC analysis.
HPLC conditions were same as those in test example 1.

[3] = PBS, cytidine deaminase, 37° C., about 1 hour, peak of the starting material

cytidine deaminase: CDA (1-146aa), Human, His-tagged, Recombinant, sequence (P32320 whole entry): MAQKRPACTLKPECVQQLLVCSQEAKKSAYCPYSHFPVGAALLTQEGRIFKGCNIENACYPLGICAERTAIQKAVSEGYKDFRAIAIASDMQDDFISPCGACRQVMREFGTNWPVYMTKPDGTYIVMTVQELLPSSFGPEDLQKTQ

Structure (SMILES) | stability against cytidine deaminase (in words) ([1]; PBS, cytidine deaminase, 37° C.) | Change in HPLC pattern [1, 3] | pIC50 (RPMI-8226 myeloma cells) | Change in HPLC pattern [1] | 5-Azacytidine or 2′-deoxy-5-azacytidine (%) After 4 hours [2] [%] | 5-Azacytidine or 2′-deoxy-5-azacytidine (%) After 8 hours [2] [%] | 5-Azacytidine or 2′-deoxy-5-azacytidine (%) After 24 hours [2] [%] | production of the desilylated parent (5-azacytidine or 2′-deoxy-5-azacytidine) [2]
Nc1ncn([C@H]2C[C@H](O)[C@@H](CO)O2)c(=O)n1 [2′-Deoxy-5-azacytidine, 2′-deoxy-5-azacytidine, reference compound] | disappeared completely | The peak of the starting material disappeared | 7.52 |  |  |  |  | 
CC(C)(C)[Si](C)(C)OC[C@H]1O[C@@H](n2cnc(N)nc2=O)[C@H](O)[C@@H]1O [compound E, 5′-O-(tert-Butyldimethylsilyl)-5-azacytidine] |  |  |  | Almost no change in the peak of the starting |  |  |  | 
CC[Si](CC)(CC)OC[C@H]1O[C@@H](n2cnc(N)nc2=O)[C@H](O)[C@@H]1O [compound J, 5′-O-Triethylsilyl-5-azacytidine] |  |  | 6.18 | Almost no change in the peak of the starting | 16 | 22 | 62 | production of 5-azacytidine was confirmed
CC[Si](CC)(CC)OC[C@H]1O[C@@H](n2cnc(N)nc2=O)C[C@@H]1O [compound K, 5′-O-Triethylsilyl-2′-deoxy-5-azacytidine] |  | Almost no change in the peak of the starting | 6.57 |  | 10 | 12 | 48 | production of corresponding deskill form (2′-deoxy-5-azacytidine) was confirmed

— patent publication US10227374B2, “Silyl etherified derivatives of 5-azacytidines in carbohydrate moiety” (OHARA PHARMACEUTICAL CO., LTD., priority 2016, dated 2019)
